Reference: US20160082082A1, “USE OF THERAPEUTIC PEPTIDES FOR THE TREATMENT AND PREVENTION OF CANCER” (ARIZONA CANCER THERAPEUTICS L.L.C., priority 2008, published 2016)

Experiments:
[1] = test system: MMTV-pyV mT induced mammary gland tumors; assay: MMTV-pyV mT transgenic mouse spontaneous breast cancer; type: in vivo, mice
Method: FIGS. 4A-4D. […] FIG. 4A) MMTV-pyV mT transgenic mice were injected with FITC-msPMIP (50 μg/g body weight), sacrificed four hours later and various tissues visualized using fluorescence microscopy. FITC-msPMIP localization in the mouse mammary gland tumors is shown (2.5× and 8×). FIG. 4B) Mammary gland tumors (>0.5 cm in diameter) were allowed to develop and mice were injected daily (50 μg/g body weight, 21 day treatment, intraperitoneal (i.p.) injection, 1× per day) with either msPMIP (7 mice) or PTD4 (6 mice). At the end of treatment, animals were sacrificed and proteins lysates made of the tumors for later analysis. […] Numbers above data are number of tumors that meet the size criteria over the total potential tumor sites.
MMTV-pyV mT mice (33), obtained from Jackson Laboratories) entered into study upon the development of tumors that measured ≧0.5 cm in at least one diameter. Only mice greater than seven weeks of age were included in the study and mice that developed fluid cysts were excluded. Animals were injected i.p. with 50 μg/g body weight of msPMIP or PTD4 once daily for 21 days. Each of ten mammary glands were measured using calipers every two days, and measurements were used to determine tumor volume based on the formula a^2×b/2, with a being the smaller diameter and b being the larger diameter. After treatment for 21 days, mice were sacrificed by CO2 inhalation and tissues resected. Several msPMIP treated mice were injected with FITC-msPMIP (50 μg/g body weight) one or four hours prior to sacrifice and intact tissues were visualized using a fluorescence MZFLIII Leica dissection microscope.

EGFR = target: T1, EGFR (Mus musculus, UniProt Q01279); assay: Immunoblot of tumor lysates after EGF and peptide injection; type: in vivo, MMTV-pyV mT mice; conditions: EGF and peptide 30 minutes prior to sacrifice, after 21 day treatment
T1 construct: we generated protein lysates from tumors of MMTV-pyV mT animals injected with EGF and peptide; from tissue; host or cells: mammary gland tumours of MMTV-pyV mT mice
Method: (§1) FIGS. 6A-6B. PMIP is associated with reduced Mud 1 expression. FIG. 6A) A representative MMTV-pyV mT msPMIP (P) treated mouse and a PTD4 mouse (C) were each injected 30 minutes prior to sacrifice with epidermal growth factor (1 μg/g body weight) and with peptide. Following sacrifice the tumors were collected and protein lysates were generated. Protein (50 μg) was separated by SDS-PAGE, transferred and immunoblotted for expression of phosphotyrosine (PY99), EGFR (1005), Muc1 (CT2), and β-actin (AC-15). FIG. 6B) Lysates from MDA-MD-231 xenograft tumors (not treated with EGF; described in […]) were similarly analyzed to determine levels of EGFR and MUC1 protein expression. Relative protein levels of Muc1 were measured by densitometry and graphed (Muc1/β-actin, ANOVA, *p=0.014). Molecular weights are shown on the right. IB=immunoblot. White lines through blots indicate same gel and exposure but were non-contiguous.
To determine if msPMIP was affecting EGF-dependent degradation of EGFR, we generated protein lysates from tumors of MMTV-pyV mT animals injected with EGF and peptide 30 minutes prior to animal sacrifice (after a standard 21 day drug treatment).

Muc1 [2] = assay: Immunoblot of transgenic tumor lysates for Muc1; type: in vivo, MMTV-pyV mT mice; conditions: MMTV-pyV mT model
Method: as §1
(§2) To determine if msPMIP blocked interaction between Muc1 and β-catenin, we began by establishing levels of Muc1 protein expression in the tumor lysates. […] While the mechanism of this loss is unknown, it would certainly result in a loss of Muc1-dependent oncogenic signaling.

MUC1 [3] = assay: Immunoblot of xenograft tumor lysates for MUC1; type: in vivo, scid mice (MDA-MB-231 xenograft); conditions: MDA-MB-231 xenograft model
Method: as §1, §2

## msPMIP: mouse PMIP, SEQ ID NO: 18: mouse Muc1 mimetic peptide in tandem with PTD4 protein transduction domain (YARAAARQARAPYEEVSAGNGSSSLS; fusion protein)
[1]; 50 μg/g i.p. daily, 21 days
  number of tumors sized 100-300 mm^3, end vs beginning of treatment: remained the same
  tumors larger than 100 mm^3 (of possible tumor sites): 27%
  tumors that grew larger than 500 mm^3 by the end of the study: 1%
[1]; 21 day treatment, PTD4 n=60, PMIP n=70 tumor sites
  number of established tumors that completely regressed: four
[1]; during drug treatment, p=0.0045
  tumor initiation (percent of tumor transitions from 0 mm^3 to 100 mm^3): significant decrease
[1]; one representative mouse, 21 day treatment
  frank tumors remaining after treatment: no frank tumors remaining
EGFR
  expression of EGFR in tumor lysates: striking reduction
  phosphotyrosine in tumor lysates: striking reduction
Muc1 [2]
  Muc1 protein expression in tumor lysates: induced a loss of Muc1 protein expression
MUC1 [3]
  Muc1 protein expression in tumor lysates: induced a loss of Muc1 protein expression
